Test results: the NIST ThermoML archive (doi:10.1021/acs.jced.8b00554)

Settings: Liquid, Vibrating tube method

CCCCCCCCCC [decane]
Settings	mass density [kg/m3]
313.15 K, 100 kPa	714.75
313.15 K, 1010 kPa	715.53
313.15 K, 2000 kPa	716.4
313.15 K, 3000 kPa	717.27
313.15 K, 4000 kPa	718.14
313.15 K, 5000 kPa	718.99
313.15 K, 6010 kPa	719.78
313.15 K, 7010 kPa	720.66
313.15 K, 7990 kPa	721.48
313.15 K, 9000 kPa	722.28
313.15 K, 10000 kPa	723.08
313.15 K, 11000 kPa	723.91
313.15 K, 12000 kPa	724.66
313.15 K, 13000 kPa	725.42
313.15 K, 14010 kPa	726.18
313.15 K, 15010 kPa	726.93
313.15 K, 16000 kPa	727.61
313.15 K, 17010 kPa	728.38
313.15 K, 18010 kPa	729.1
313.15 K, 19000 kPa	729.81
313.15 K, 20000 kPa	730.51
323.15 K, 100 kPa	706.95
323.15 K, 1000 kPa	707.77
323.15 K, 1990 kPa	708.72
323.15 K, 3000 kPa	709.63
323.15 K, 4000 kPa	710.55
323.15 K, 5010 kPa	711.46
323.15 K, 5990 kPa	712.35
323.15 K, 7000 kPa	713.23
323.15 K, 8010 kPa	714.1
323.15 K, 8990 kPa	714.96
323.15 K, 10010 kPa	715.8
323.15 K, 11000 kPa	716.66
323.15 K, 12010 kPa	717.49
323.15 K, 13010 kPa	718.29
323.15 K, 14000 kPa	719.09
323.15 K, 15010 kPa	719.88
323.15 K, 16010 kPa	720.66
323.15 K, 17010 kPa	721.43
323.15 K, 17990 kPa	722.2
323.15 K, 18990 kPa	722.94
323.15 K, 20010 kPa	723.68
333.15 K, 100 kPa	699.17
333.15 K, 1000 kPa	700.04
333.15 K, 2010 kPa	701.02
333.15 K, 3000 kPa	702.01
333.15 K, 4010 kPa	702.98
333.15 K, 4990 kPa	703.93
333.15 K, 5990 kPa	704.88
333.15 K, 7000 kPa	705.81
333.15 K, 8000 kPa	706.73
333.15 K, 9010 kPa	707.63
333.15 K, 9990 kPa	708.53
333.15 K, 11000 kPa	709.45
333.15 K, 12000 kPa	710.31
333.15 K, 13010 kPa	711.16
333.15 K, 14000 kPa	712.01
333.15 K, 15000 kPa	712.85
333.15 K, 16010 kPa	713.67
333.15 K, 16990 kPa	714.48
333.15 K, 18000 kPa	715.29
333.15 K, 18990 kPa	716.08
333.15 K, 20000 kPa	716.87
343.15 K, 100 kPa	691.44
343.15 K, 1010 kPa	692.33
343.15 K, 2010 kPa	693.38
343.15 K, 2990 kPa	694.42
343.15 K, 4010 kPa	695.45
343.15 K, 4990 kPa	696.46
343.15 K, 6000 kPa	697.46
343.15 K, 7000 kPa	698.44
343.15 K, 8010 kPa	699.41
343.15 K, 8990 kPa	700.37
343.15 K, 10010 kPa	701.31
343.15 K, 11010 kPa	702.25
343.15 K, 12010 kPa	703.17
343.15 K, 13000 kPa	704.08
343.15 K, 14010 kPa	704.97
343.15 K, 15000 kPa	705.86
343.15 K, 16000 kPa	706.73
343.15 K, 17010 kPa	707.59
343.15 K, 18010 kPa	708.44
343.15 K, 18990 kPa	709.28
343.15 K, 19990 kPa	710.1
353.15 K, 100 kPa	683.75
353.15 K, 1010 kPa	684.69
353.15 K, 2000 kPa	685.79
353.15 K, 3010 kPa	686.88
353.15 K, 4010 kPa	687.96
353.15 K, 5010 kPa	689.03
353.15 K, 5990 kPa	690.08
353.15 K, 7000 kPa	691.11
353.15 K, 8000 kPa	692.13
353.15 K, 9000 kPa	693.13
353.15 K, 10000 kPa	694.12
353.15 K, 11010 kPa	695.12
353.15 K, 12000 kPa	696.08
353.15 K, 13000 kPa	697.04
353.15 K, 13990 kPa	697.98
353.15 K, 15000 kPa	698.91
353.15 K, 16000 kPa	699.82
353.15 K, 16990 kPa	700.72
353.15 K, 18010 kPa	701.62
353.15 K, 19000 kPa	702.5
353.15 K, 20000 kPa	703.37
363.15 K, 100 kPa	676.12
363.15 K, 990 kPa	677.1
363.15 K, 2010 kPa	678.26
363.15 K, 3000 kPa	679.41
363.15 K, 3990 kPa	680.54
363.15 K, 5010 kPa	681.66
363.15 K, 5990 kPa	682.76
363.15 K, 7000 kPa	683.84
363.15 K, 8010 kPa	684.91
363.15 K, 9010 kPa	685.97
363.15 K, 10010 kPa	687
363.15 K, 11000 kPa	688.04
363.15 K, 12010 kPa	689.05
363.15 K, 13010 kPa	690.06
363.15 K, 14000 kPa	691.04
363.15 K, 15010 kPa	692.02
363.15 K, 15990 kPa	692.98
363.15 K, 17000 kPa	693.93
363.15 K, 17990 kPa	694.86
363.15 K, 19000 kPa	695.79
363.15 K, 20000 kPa	696.7

CCCCCCCC [octane]
Settings	mass density [kg/m3]
313.15 K, 100 kPa	686.05
313.15 K, 1030 kPa	687.19
313.15 K, 1950 kPa	688.13
313.15 K, 2950 kPa	689.08
313.15 K, 3960 kPa	690
313.15 K, 4960 kPa	690.87
313.15 K, 5970 kPa	691.78
313.15 K, 6970 kPa	692.65
313.15 K, 7980 kPa	693.54
313.15 K, 8980 kPa	694.38
313.15 K, 9990 kPa	695.26
313.15 K, 11030 kPa	696.11
313.15 K, 11950 kPa	696.94
313.15 K, 12950 kPa	697.75
313.15 K, 13960 kPa	698.56
313.15 K, 14960 kPa	699.37
313.15 K, 15970 kPa	700.18
313.15 K, 16970 kPa	700.99
313.15 K, 17980 kPa	701.77
313.15 K, 18980 kPa	702.53
313.15 K, 19990 kPa	703.31
323.15 K, 100 kPa	677.56
323.15 K, 950 kPa	678.99
323.15 K, 1960 kPa	680.02
323.15 K, 2970 kPa	681.01
323.15 K, 3980 kPa	681.99
323.15 K, 4980 kPa	682.97
323.15 K, 5980 kPa	683.91
323.15 K, 6990 kPa	684.86
323.15 K, 7990 kPa	685.78
323.15 K, 9000 kPa	686.69
323.15 K, 10090 kPa	687.59
323.15 K, 10950 kPa	688.51
323.15 K, 11960 kPa	689.4
323.15 K, 12970 kPa	690.29
323.15 K, 13980 kPa	691.16
323.15 K, 14980 kPa	691.98
323.15 K, 15980 kPa	692.86
323.15 K, 16990 kPa	693.68
323.15 K, 17990 kPa	694.53
323.15 K, 19000 kPa	695.33
323.15 K, 20090 kPa	696.18
333.15 K, 100 kPa	669.13
333.15 K, 1050 kPa	670.67
333.15 K, 1940 kPa	671.75
333.15 K, 2950 kPa	672.81
333.15 K, 3950 kPa	673.87
333.15 K, 4960 kPa	674.91
333.15 K, 5960 kPa	675.95
333.15 K, 6960 kPa	676.93
333.15 K, 7990 kPa	677.93
333.15 K, 8990 kPa	678.93
333.15 K, 10000 kPa	679.89
333.15 K, 11050 kPa	680.86
333.15 K, 11940 kPa	681.81
333.15 K, 12950 kPa	682.71
333.15 K, 13950 kPa	683.67
333.15 K, 14960 kPa	684.58
333.15 K, 15960 kPa	685.48
333.15 K, 16960 kPa	686.34
333.15 K, 17990 kPa	687.26
333.15 K, 18990 kPa	688.1
333.15 K, 20000 kPa	688.97
343.15 K, 100 kPa	661.02
343.15 K, 960 kPa	662.23
343.15 K, 1970 kPa	663.39
343.15 K, 2980 kPa	664.55
343.15 K, 3980 kPa	665.65
343.15 K, 4990 kPa	666.79
343.15 K, 5990 kPa	667.86
343.15 K, 7000 kPa	668.94
343.15 K, 8010 kPa	670.02
343.15 K, 9010 kPa	671.05
343.15 K, 10100 kPa	672.12
343.15 K, 10960 kPa	673.13
343.15 K, 11970 kPa	674.15
343.15 K, 12980 kPa	675.12
343.15 K, 13980 kPa	676.13
343.15 K, 14990 kPa	677.1
343.15 K, 15990 kPa	678.03
343.15 K, 17000 kPa	678.97
343.15 K, 18010 kPa	679.93
343.15 K, 19010 kPa	680.86
343.15 K, 20100 kPa	681.78
353.15 K, 100 kPa	652.22
353.15 K, 1060 kPa	653.65
353.15 K, 1940 kPa	654.91
353.15 K, 2950 kPa	656.12
353.15 K, 3960 kPa	657.35
353.15 K, 4960 kPa	658.54
353.15 K, 5960 kPa	659.71
353.15 K, 6970 kPa	660.9
353.15 K, 7980 kPa	662.03
353.15 K, 8980 kPa	663.17
353.15 K, 9980 kPa	664.24
353.15 K, 11060 kPa	665.33
353.15 K, 11940 kPa	666.44
353.15 K, 12950 kPa	667.49
353.15 K, 13960 kPa	668.52
353.15 K, 14960 kPa	669.56
353.15 K, 15960 kPa	670.6
353.15 K, 16970 kPa	671.6
353.15 K, 17980 kPa	672.57
353.15 K, 18980 kPa	673.56
353.15 K, 19980 kPa	674.52
363.15 K, 100 kPa	643.71
363.15 K, 950 kPa	644.91
363.15 K, 1960 kPa	646.3
363.15 K, 2970 kPa	647.63
363.15 K, 3970 kPa	648.92
363.15 K, 4980 kPa	650.23
363.15 K, 5980 kPa	651.49
363.15 K, 6990 kPa	652.73
363.15 K, 7990 kPa	653.97
363.15 K, 8990 kPa	655.15
363.15 K, 10090 kPa	656.34
363.15 K, 10950 kPa	657.54
363.15 K, 11960 kPa	658.66
363.15 K, 12970 kPa	659.79
363.15 K, 13970 kPa	660.94
363.15 K, 14980 kPa	662.01
363.15 K, 15980 kPa	663.09
363.15 K, 16990 kPa	664.19
363.15 K, 17990 kPa	665.21
363.15 K, 18990 kPa	666.28
363.15 K, 20090 kPa	667.28
